# Measurements from ChEMBL document CHEMBL5212743, “Selectivity Literature for EUbOPEN Chemogenomics Library wave 3” (2023).
# Experiments:
# [1] = molecular target: T1, Gamma-aminobutyric acid receptor subunit alpha-1 (Homo sapiens, UniProt P14867); test: Selectivity interaction (GPCR panel (PDSP screen)) EUB0000547a GABRA1
# T1 sequence (P14867 whole entry): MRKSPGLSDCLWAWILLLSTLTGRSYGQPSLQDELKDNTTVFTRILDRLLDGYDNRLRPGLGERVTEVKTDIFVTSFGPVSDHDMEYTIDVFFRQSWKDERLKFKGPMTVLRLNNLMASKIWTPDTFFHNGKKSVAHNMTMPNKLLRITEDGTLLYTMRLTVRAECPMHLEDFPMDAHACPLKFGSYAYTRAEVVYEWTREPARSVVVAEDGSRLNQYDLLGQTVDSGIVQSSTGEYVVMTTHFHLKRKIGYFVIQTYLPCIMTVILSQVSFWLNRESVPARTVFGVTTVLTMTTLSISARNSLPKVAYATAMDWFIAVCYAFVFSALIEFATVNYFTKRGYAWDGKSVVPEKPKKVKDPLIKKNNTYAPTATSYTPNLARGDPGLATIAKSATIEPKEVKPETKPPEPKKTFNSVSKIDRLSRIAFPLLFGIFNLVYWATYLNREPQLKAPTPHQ
# [2] = molecular target: T2, Mitogen-activated protein kinase kinase kinase 13 (Homo sapiens) (UniProt O43283); test: Selectivity interaction (KinomeScan (DiscoverX)) EUB0000547a MAP3K13; settings: at 1 µM
# T2 sequence (whole entry): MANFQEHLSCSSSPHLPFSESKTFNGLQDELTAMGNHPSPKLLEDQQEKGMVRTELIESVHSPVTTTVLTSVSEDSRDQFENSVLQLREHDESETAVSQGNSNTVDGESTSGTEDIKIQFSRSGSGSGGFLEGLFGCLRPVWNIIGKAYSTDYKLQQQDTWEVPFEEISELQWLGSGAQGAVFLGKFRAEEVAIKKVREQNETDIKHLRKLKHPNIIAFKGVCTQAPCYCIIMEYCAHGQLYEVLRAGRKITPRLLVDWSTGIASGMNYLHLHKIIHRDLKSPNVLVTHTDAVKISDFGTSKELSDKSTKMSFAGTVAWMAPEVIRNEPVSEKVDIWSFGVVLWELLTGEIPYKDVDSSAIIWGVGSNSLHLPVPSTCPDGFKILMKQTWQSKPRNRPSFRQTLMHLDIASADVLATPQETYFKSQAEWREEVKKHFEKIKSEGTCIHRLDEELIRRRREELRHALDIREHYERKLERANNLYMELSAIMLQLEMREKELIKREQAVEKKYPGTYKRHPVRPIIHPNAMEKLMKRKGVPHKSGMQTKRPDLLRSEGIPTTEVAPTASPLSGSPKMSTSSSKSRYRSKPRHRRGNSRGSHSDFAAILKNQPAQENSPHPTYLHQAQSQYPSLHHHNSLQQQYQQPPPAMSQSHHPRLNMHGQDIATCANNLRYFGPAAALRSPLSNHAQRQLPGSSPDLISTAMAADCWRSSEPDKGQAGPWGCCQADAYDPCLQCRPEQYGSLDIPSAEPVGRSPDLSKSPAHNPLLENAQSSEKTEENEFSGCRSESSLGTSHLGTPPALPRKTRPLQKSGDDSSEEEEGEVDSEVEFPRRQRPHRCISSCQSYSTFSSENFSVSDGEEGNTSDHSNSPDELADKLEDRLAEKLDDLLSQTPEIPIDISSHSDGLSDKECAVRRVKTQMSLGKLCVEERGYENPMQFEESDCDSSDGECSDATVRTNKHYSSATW
# [3] = molecular target: Tyrosine-protein kinase ZAP-70 (Homo sapiens) (UniProt P43403); test: Selectivity interaction (KinomeScan (DiscoverX)) EUB0000547a ZAP70; settings: at 1 µM
# [4] = molecular target: T3, Adenosine receptor A3 (Homo sapiens) (UniProt P0DMS8); test: Selectivity interaction (CEREP panel (Eurofins, enzymes and uptake assays)) EUB0000544a ADORA3; settings: at 10 µM
# T3 sequence (whole entry): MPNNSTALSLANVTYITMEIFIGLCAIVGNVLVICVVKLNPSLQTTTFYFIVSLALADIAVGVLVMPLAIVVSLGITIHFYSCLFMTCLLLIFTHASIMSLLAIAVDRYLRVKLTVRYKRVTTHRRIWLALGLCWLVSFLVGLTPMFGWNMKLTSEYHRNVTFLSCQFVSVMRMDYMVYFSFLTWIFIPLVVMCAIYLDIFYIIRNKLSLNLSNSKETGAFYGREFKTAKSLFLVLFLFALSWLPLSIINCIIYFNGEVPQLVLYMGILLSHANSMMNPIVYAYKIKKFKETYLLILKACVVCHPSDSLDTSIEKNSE
# [5] = molecular target: T4, Alpha-2B adrenergic receptor (Homo sapiens) (UniProt P18089); test: Selectivity interaction (CEREP panel (Eurofins, binding assay)) EUB0000544a ADRA2B; settings: at 10 µM
# T4 sequence (whole entry): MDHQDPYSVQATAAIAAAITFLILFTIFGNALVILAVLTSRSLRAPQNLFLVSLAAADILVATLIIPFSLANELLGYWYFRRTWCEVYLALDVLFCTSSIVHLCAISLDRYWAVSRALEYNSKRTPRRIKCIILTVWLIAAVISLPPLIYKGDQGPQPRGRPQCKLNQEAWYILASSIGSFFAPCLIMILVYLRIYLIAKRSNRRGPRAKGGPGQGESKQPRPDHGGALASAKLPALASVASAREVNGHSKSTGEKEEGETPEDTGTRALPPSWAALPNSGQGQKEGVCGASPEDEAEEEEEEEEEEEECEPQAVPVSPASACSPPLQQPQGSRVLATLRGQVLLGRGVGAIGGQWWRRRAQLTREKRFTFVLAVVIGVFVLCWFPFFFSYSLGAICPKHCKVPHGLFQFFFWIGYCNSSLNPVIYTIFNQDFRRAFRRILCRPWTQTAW
# [6] = molecular target: Translocator protein (Homo sapiens) (UniProt P30536); test: Selectivity interaction (CEREP panel (Eurofins, binding assay)) EUB0000544a TSPO; settings: at 10 µM
# [7] = molecular target: T3, Adenosine receptor A3 (Homo sapiens); test: Selectivity interaction (CEREP panel (Eurofins, binding assay)) EUB0000544a ADORA3; settings: at 10 µM
# [8] = molecular target: T4, Alpha-2B adrenergic receptor (Homo sapiens); test: Selectivity interaction (CEREP panel (Eurofins, enzymes and uptake assays)) EUB0000544a ADRA2B; settings: at 10 µM
# [9] = molecular target: T5, Homeodomain-interacting protein kinase 4 (Homo sapiens) (UniProt Q8NE63); test: Selectivity interaction (KinomeScan (DiscoverX)) EUB0000544a HIPK4; settings: at 1 µM
# T5 sequence (whole entry): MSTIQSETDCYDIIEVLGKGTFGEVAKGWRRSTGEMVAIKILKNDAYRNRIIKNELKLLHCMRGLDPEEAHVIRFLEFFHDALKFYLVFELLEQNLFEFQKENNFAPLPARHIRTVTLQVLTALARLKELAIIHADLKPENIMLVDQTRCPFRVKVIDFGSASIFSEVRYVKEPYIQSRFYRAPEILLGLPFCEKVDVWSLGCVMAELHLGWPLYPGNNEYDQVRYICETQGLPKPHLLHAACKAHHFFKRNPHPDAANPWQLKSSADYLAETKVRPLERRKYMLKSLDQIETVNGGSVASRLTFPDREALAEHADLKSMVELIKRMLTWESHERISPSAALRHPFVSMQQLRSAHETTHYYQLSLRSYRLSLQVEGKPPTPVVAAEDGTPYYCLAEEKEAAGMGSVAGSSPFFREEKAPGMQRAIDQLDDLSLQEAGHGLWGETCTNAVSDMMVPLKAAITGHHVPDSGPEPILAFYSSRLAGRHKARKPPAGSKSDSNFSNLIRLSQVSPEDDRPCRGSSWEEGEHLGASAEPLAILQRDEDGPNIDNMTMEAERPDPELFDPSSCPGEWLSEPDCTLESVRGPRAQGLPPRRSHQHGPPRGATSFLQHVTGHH
# [10] = molecular target: T1, Gamma-aminobutyric acid receptor subunit alpha-1; test: Selectivity interaction (GPCR panel (PDSP screen)) EUB0000544a GABRA1
# [11] = molecular target: Sigma non-opioid intracellular receptor 1 (Homo sapiens, UniProt Q99720); test: Selectivity interaction (GPCR panel (PDSP screen)) EUB0000289bCl SIGMAR1
# [12] = molecular target: Lysosomal Pro-X carboxypeptidase (Homo sapiens) (UniProt P42785); test: Selectivity interaction (CEREP panel (Eurofins, panel of ion channels, receptors, GPCRs, and enzymes (ligand binding assay))) EUB0000289c PRCP; settings: at 3 µM
# [13] = molecular target: Serine/threonine-protein kinase BRSK2 (Homo sapiens, UniProt Q8IWQ3); test: Selectivity interaction (KinomeScan (DiscoverX, competition-binding assay)) EUB0000289c BRSK2
# [14] = molecular target: T6, Serine/threonine-protein kinase Nek7 (Homo sapiens, UniProt Q8TDX7); test: Selectivity interaction (KinomeScan (DiscoverX)) EUB0000289c NEK7; settings: at 1 µM
# Target sequence in this assay (Q8TDX7 whole entry, looked up): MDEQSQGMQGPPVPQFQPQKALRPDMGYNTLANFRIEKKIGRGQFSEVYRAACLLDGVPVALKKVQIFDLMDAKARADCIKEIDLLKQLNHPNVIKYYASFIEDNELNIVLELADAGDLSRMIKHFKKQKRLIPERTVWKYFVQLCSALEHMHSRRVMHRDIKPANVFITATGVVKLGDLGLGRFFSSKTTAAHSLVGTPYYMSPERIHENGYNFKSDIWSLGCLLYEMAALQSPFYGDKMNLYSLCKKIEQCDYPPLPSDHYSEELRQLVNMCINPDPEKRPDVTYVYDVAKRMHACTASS
# [15] = molecular target: Ephrin type-A receptor 1 (Homo sapiens) (UniProt P21709); test: Selectivity interaction (KinomeScan (DiscoverX)) EUB0000289c EPHA1; settings: at 1 µM
# [16] = molecular target: Serine/threonine-protein kinase BRSK2 (Homo sapiens) (UniProt Q8IWQ3); test: Selectivity interaction (KinomeScan (DiscoverX)) EUB0000289c BRSK2; settings: at 1 µM
# [17] = molecular target: Ephrin type-A receptor 1 (Homo sapiens, UniProt P21709); test: Selectivity interaction (KinomeScan (DiscoverX, competition-binding assay)) EUB0000289c EPHA1
# [18] = molecular target: G protein-coupled receptor kinase 3 (Homo sapiens, UniProt P35626); test: Selectivity interaction (KinomeScan (DiscoverX, competition-binding assay)) EUB0000289c ADRBK2
# [19] = molecular target: T7, G protein-coupled receptor kinase 3 (Homo sapiens) (UniProt P35626); test: Selectivity interaction (KinomeScan (DiscoverX)) EUB0000289c ADRBK2; settings: at 1 µM
# T7 sequence (whole entry): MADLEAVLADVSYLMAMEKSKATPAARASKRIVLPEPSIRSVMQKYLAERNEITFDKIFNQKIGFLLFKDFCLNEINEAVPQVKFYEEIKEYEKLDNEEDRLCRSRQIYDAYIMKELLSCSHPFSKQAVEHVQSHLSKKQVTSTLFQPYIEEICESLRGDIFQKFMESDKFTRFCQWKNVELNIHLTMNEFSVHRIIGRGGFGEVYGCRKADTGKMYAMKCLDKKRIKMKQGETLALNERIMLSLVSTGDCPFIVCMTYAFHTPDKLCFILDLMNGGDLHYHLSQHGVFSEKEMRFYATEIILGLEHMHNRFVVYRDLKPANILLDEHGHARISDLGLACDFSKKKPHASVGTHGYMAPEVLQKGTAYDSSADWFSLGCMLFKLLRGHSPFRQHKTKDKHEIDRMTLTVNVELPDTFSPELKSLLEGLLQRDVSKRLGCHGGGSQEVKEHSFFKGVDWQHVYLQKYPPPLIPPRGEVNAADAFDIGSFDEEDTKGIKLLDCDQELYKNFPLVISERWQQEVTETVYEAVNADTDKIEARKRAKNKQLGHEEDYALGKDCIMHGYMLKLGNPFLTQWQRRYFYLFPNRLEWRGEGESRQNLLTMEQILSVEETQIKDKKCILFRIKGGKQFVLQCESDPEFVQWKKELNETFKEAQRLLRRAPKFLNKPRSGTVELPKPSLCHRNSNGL
# [20] = molecular target: T6, Serine/threonine-protein kinase Nek7; test: Selectivity interaction (KinomeScan (DiscoverX, competition-binding assay)) EUB0000289c NEK7
# Target sequence in this assay (Q8TDX7 whole entry): as the sequence (Q8TDX7 whole entry, looked up) above
# [21] = molecular target: T8, Histamine H1 receptor (Homo sapiens, UniProt P35367); test: Selectivity interaction (GPCR panel (PDSP screen)) EUB0000289c HRH1
# [22] = molecular target: Endothelin receptor type B (Homo sapiens) (UniProt P24530); settings: at 10 µM
# [23] = molecular target: T8, Histamine H1 receptor; test: (§1) Selectivity interaction (GPCR panel (PDSP screen)) EUB0000348aPTSA HRH1; settings: at 10 µM
# [24] = molecular target: T8, Histamine H1 receptor; test: as §1
# [25] = molecular target: Dual specificity protein kinase CLK4 (Homo sapiens) (UniProt Q9HAZ1); test: Selectivity interaction (KinomeScan (DiscoverX)) EUB0000348aPTSA CLK4; settings: at 1 µM
# [26] = molecular target: Cyclin-dependent kinase 5 (Homo sapiens) (UniProt Q00535); test: Selectivity interaction (KinomeScan (DiscoverX)) EUB0000348aPTSA CDK5; settings: at 1 µM
# [27] = molecular target: T2, Mitogen-activated protein kinase kinase kinase 13 (Homo sapiens); test: Selectivity interaction (KinomeScan (DiscoverX)) EUB0000348aPTSA MAP3K13; settings: at 1 µM
# [28] = molecular target: Delta-type opioid receptor (Homo sapiens) (UniProt P41143); test: Selectivity interaction (CEREP panel (Eurofins, receptors, ion channels, and other enzymes)) EUB0000348aPTSA OPRD1; settings: at 10 µM
# Chain of Delta-type opioid receptor (Homo sapiens) (P41143 whole entry): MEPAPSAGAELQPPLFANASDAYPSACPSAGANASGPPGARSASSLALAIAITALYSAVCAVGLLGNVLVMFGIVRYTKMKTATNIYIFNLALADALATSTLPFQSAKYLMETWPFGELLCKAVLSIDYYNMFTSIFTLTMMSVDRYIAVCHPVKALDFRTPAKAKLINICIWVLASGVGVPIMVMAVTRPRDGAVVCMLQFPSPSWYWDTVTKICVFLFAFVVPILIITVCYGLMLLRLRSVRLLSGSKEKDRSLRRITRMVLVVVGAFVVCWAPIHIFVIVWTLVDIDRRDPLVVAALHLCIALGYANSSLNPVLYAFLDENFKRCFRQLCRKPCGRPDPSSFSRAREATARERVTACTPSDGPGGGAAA
# T8 sequence (P35367 whole entry): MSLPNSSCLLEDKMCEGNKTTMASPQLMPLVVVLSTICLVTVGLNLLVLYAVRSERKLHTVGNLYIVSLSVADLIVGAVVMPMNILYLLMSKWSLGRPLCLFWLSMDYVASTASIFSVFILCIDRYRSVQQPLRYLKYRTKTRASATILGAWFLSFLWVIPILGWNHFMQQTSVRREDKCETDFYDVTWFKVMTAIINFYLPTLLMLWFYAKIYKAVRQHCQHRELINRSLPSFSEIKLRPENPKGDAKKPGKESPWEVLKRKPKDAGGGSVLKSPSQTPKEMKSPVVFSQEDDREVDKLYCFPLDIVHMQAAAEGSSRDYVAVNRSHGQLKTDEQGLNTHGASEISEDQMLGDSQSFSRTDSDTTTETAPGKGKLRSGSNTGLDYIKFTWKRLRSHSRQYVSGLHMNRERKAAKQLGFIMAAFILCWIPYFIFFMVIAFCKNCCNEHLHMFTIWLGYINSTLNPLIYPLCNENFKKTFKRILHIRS
# Chain of Dual specificity protein kinase CLK4 (Homo sapiens) (Q9HAZ1 whole entry, looked up): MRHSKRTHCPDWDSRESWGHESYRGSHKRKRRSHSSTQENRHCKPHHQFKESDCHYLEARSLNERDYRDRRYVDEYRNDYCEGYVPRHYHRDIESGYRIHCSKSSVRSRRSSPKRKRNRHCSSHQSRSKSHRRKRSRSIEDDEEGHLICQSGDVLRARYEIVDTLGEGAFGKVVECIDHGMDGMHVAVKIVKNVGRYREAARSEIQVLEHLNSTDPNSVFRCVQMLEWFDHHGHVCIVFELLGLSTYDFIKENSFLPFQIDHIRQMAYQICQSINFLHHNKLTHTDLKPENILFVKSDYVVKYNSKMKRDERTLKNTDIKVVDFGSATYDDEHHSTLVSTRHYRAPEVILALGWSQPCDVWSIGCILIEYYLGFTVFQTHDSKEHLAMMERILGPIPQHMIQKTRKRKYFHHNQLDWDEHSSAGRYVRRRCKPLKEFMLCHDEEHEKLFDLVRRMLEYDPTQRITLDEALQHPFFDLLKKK
# Chain of Lysosomal Pro-X carboxypeptidase (Homo sapiens) (P42785 whole entry): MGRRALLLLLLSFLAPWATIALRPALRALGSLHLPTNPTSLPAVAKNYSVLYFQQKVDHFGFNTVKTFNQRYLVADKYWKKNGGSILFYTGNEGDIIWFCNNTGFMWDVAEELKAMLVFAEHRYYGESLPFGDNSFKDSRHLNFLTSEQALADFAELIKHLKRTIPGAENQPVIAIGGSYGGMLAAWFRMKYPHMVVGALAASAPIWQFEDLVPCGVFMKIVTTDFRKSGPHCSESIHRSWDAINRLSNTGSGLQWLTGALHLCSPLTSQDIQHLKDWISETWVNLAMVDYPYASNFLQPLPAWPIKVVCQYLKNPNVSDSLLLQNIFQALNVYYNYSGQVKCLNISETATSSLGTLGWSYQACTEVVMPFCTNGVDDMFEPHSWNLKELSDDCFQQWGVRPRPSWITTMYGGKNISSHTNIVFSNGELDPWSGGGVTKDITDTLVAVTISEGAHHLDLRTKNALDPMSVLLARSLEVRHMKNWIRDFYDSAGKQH
# Chain of Translocator protein (Homo sapiens) (P30536 whole entry): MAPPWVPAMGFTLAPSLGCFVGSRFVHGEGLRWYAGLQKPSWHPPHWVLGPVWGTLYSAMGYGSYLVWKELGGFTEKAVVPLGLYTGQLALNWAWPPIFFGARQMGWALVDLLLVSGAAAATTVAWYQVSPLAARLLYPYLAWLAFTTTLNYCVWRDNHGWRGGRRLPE
# Chain of Ephrin type-A receptor 1 (P21709 whole entry): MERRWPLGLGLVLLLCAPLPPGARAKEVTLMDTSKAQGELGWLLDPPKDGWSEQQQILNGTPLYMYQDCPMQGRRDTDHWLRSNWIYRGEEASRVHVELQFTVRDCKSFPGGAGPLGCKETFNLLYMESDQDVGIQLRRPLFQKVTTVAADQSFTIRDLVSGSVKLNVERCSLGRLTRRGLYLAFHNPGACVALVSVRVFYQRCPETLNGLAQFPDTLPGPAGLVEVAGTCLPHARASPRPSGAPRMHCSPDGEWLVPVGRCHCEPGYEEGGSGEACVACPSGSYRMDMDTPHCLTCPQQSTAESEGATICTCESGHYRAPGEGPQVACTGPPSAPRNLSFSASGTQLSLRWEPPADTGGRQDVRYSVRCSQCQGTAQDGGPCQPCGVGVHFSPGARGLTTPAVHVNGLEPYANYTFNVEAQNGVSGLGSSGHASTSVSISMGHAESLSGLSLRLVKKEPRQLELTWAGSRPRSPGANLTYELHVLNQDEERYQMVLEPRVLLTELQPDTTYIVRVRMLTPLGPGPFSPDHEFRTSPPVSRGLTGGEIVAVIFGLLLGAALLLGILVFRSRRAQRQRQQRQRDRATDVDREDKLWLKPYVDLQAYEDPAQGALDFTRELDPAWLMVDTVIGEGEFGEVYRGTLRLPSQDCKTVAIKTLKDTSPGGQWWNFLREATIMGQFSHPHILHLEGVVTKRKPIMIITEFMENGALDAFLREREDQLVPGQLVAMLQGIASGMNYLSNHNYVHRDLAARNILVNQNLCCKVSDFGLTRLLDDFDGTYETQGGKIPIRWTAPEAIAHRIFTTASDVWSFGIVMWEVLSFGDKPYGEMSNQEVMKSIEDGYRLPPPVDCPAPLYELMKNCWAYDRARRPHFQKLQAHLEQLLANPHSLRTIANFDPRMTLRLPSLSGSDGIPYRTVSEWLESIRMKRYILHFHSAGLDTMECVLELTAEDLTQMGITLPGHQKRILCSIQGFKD
# Chain of Ephrin type-A receptor 1 (Homo sapiens) (P21709 whole entry): as above
# Chain of Serine/threonine-protein kinase BRSK2 (Q8IWQ3 whole entry): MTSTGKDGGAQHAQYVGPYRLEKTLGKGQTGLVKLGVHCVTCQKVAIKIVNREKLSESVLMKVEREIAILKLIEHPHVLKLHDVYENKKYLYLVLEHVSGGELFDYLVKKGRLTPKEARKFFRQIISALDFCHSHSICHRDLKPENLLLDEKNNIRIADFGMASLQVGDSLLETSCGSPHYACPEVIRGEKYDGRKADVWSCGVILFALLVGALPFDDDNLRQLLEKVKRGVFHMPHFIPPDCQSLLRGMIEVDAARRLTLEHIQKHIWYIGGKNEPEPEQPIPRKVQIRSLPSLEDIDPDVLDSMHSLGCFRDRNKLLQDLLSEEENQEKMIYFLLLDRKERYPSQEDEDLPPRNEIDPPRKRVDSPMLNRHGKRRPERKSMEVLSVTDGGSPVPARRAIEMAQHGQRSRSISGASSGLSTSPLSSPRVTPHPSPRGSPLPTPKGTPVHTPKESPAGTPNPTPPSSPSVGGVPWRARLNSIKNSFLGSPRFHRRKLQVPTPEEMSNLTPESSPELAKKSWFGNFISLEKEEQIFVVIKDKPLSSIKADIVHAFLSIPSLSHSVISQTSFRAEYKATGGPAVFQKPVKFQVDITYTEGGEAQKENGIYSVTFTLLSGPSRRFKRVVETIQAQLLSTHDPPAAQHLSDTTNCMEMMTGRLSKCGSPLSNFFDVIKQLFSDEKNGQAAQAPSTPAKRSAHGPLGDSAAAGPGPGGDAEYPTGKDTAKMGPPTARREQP
# Chain of Serine/threonine-protein kinase BRSK2 (Homo sapiens) (Q8IWQ3 whole entry): as above
# Chain of Cyclin-dependent kinase 5 (Homo sapiens) (Q00535 whole entry, looked up): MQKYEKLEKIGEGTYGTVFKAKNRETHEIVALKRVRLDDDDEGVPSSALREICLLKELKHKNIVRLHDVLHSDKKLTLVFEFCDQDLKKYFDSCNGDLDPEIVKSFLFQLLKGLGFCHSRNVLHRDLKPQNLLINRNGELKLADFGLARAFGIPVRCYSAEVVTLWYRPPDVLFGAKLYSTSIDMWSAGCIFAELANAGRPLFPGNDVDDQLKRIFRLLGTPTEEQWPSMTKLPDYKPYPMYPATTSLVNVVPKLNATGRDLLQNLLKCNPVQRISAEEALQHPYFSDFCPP
# Chain of Sigma non-opioid intracellular receptor 1 (Q99720 whole entry): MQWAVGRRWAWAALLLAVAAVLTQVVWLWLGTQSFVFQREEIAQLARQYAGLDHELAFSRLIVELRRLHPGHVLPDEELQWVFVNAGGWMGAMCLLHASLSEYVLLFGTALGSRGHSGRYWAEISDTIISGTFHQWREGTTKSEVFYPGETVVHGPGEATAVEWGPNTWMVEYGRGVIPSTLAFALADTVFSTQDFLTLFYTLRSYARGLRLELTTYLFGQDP
smiles,measurement,setting,value
CCC(=N\O)/C(C)=C/c1ccc(F)c(C)c1 [A-226],Ki,[1],3.69 µM
same,% of control,[2],23%
same,% of control,[3],38%
COc1ccc2c(c1)O[C@@H](c1ccc(OC)c(OC)c1)C[C@H]2NC(=O)C1(c2ccc3c(c2)OC(F)(F)O3)CC1 [A-1596586],% of inhibition,[4],63.9%
same,% of inhibition,[5],63.5%
same,% of inhibition,[6],95.5%
same,% of inhibition,[7],63.9%
same,% of inhibition,[8],63.5%
same,% of control,[9],51%
same,Ki,[10],0.0196 µM
CCCCN(CCCC)C(=O)CN1C[C@@H](c2cc(OC)c3c(c2)OCO3)[C@H](C(=O)O)[C@H]1CC(C)(C)CCC,Ki,[11],0.289 µM
Cn1cncc1[C@](O)(COc1ccc(C#N)cc1-c1ccc(OC(F)(F)F)cc1)c1ccc(C#N)cc1 [ABT-100],% of inhibition,[12],97%
same,Kd,[13],> 10 µM
same,% of control,[14],46%
same,% of control,[15],38%
same,% of control,[16],48%
same,Kd,[17],> 10 µM
same,Kd,[18],> 10 µM
same,% of control,[19],48%
same,Kd,[20],> 10 µM
same,Ki,[21],> 10 µM
CCCCN(CCCC)C(=O)CN1C[C@H](c2cc(OC)c3c(c2)OCO3)[C@@H](C(=O)O)[C@@H]1CC(C)(C)CCC,% of inhibition,[22],56%
same,% of inhibition,[23],54%
same,Ki,[24],> 10 µM
same,% of control,[25],0%
same,% of control,[26],0%
same,% of control,[27],0%
same,% of inhibition,[28],62%
